Laboratory results published in patent US20090247465A1, “Novel Use of Bivalirudin in the Treatment of Acute Coronary Syndrome” (priority 2008, published 2009).

Tests used:
[1] = in vivo; cited from earlier work
[2] = system: patients with moderate and high risk NSTE-ACS; conditions: ACUITY; bivalirudin monotherapy vs UFH/enoxaparin plus a GP IIb/IIIa inhibitor; cited from earlier work
[3] = system: patients with moderate and high risk NSTE-ACS; experiment: ACUITY analysis: clinical outcomes at 30 days, consistent UFH/enoxaparin plus GP IIb/IIIa inhibitor vs switch to bivalirudin, and antithrombin-naïve patients; conditions: human, in vivo
Excerpt: A total of 4215 patients received prior antithrombin therapy with either UFH or enoxaparin before randomization. Of these, 2137 were randomized to receive the same antithrombin plus a GP IIb/IIIa inhibitor (consistent), while 2078 patients were randomized to receive bivalirudin (switch). There were 2889 patients naïve to antithrombin therapy at randomization, and of these, 1462 patients were randomized to UFH/enoxaparin plus a GP IIb/IIIa inhibitor and 1427 to bivalirudin monotherapy (FIG. 1).
At 30 days, there was no difference in composite ischemia between the two groups: 6.9% for patients switched to bivalirudin vs. 7.4% for patients remaining on consistent UFH/enoxaparin ([RR 0.93; 0.75-1.16], p=0.52). […] Transfusions were also lower in the patients switched to bivalirudin vs. patients remaining on consistent UFH/enoxaparin (1.5% vs. 2.6% [RR 0.60; 0.39-0.92], p=0.02). (Table 2, FIG. 2).
Tables 3a and 3b show clinical outcomes according to type of heparin therapy (UFH or enoxaparin) in patients on prior antithrombin therapy and in patients naive to antithrombin therapy. […]

| Major bleeding, number of patients [3] | Transfusion, number of patients [3] | Compound | doses not causing adverse effects [1] | absolute reduction in major bleeding [2] | relative reduction in major bleeding [2] |
| --- | --- | --- | --- | --- | --- |
|  |  | CC[C@H](C)[C@H](NC(=O)[C@H](CCC(=O)O)NC(=O)[C@H](CCC(=O)O)NC(=O)[C@H](Cc1ccccc1)NC(=O)[C@H](CC(=O)O)NC(=O)CNC(=O)[C@H](CC(N)=O)NC(=O)CNC(=O)CNC(=O)CNC(=O)CNC(=O)[C@@H]1CCCN1C(=O)[C@H](CCCNC(=N)N)NC(=O)[C@@H]1CCCN1C(=O)[C@H](N)Cc1ccccc1)C(=O)N1CCC[C@H]1C(=O)N[C@@H](CCC(=O)O)C(=O)N[C@@H](CCC(=O)O)C(=O)N[C@@H](Cc1ccc(O)cc1)C(=O)N[C@@H](CC(C)C)C(=O)O [Bivalirudin, bivalirudin] | up to 7.5 mg/kg | 2.7% | 47% |
| 42 | 19 | enoxaparin |  |  |  |
